Where only a bound is given, the exact number is not on record here.

Results on five compounds are retold here after publication PMC4648050, “Discovery of Inhibitors of Trypanosoma brucei by Phenotypic Screening of a Focused Protein Kinase Library” (Chemmedchem, 2015).

In one series the target is SYK (Homo sapiens, UniProt P43405). As to the kind of experiment: Kinase panel: SYK. The class given is biochemical, human/mammalian. Particulars: compound at 10 μM, read-out: % of activity respect of the control. As for the experimental part:
(§1) The DDU kinase-focused compound set contains lead-like scaffolds that are designed to target protein kinases; they have kinase hinge binding motifs. Four of the 1H-imidazopyrazinones were screened against a human/mammalian kinase panel at the University of Dundee (http://www.kinase-screen.mrc.ac.uk) at a concentration of 10 μM. At the time of testing the panel contained 79 mammalian kinases selected to provide a broad coverage of the mammalian kinome (∼500 kinases in the human genome).[3] None of the compounds were active against any of the kinases at 10 μM.

For a further series, the target named is PKA (Homo sapiens, UniProt P17612). As to the kind of experiment: Kinase panel: PKA. The class given is biochemical, human/mammalian. The note with it: compound at 10 μM, read-out: % of activity respect of the control. How it is done: as §1
Series [1] can be described thus: Intrinsic clearance in mouse liver microsomes. The class given is in vitro ADME. The note with it: mouse hepatic microsomes, 0.5 μM compound. As for the experimental part: Intrinsic clearance experiments: Test compound (0.5 μM) was incubated with female CD1 mouse liver microsomes (Xenotech LLC; 0.5 mg mL^−1 50 mM potassium phosphate buffer, pH 7.4), and the reaction started with the addition of excess NADPH (8 mg mL^−1 50 mM potassium phosphate buffer, pH 7.4). Immediately, at t0, then at 3, 6, 9, 15, and 30 min an aliquot (50 μL) of the incubation mixture was removed and mixed with MeCN (100 μL) to stop the reaction. Internal standard was added to all samples, the samples were centrifuged to sediment precipitated protein, and the plates were then sealed prior to UPLC–MS/MS analysis using a Quattro Premier XE instrument (Waters Corp., USA). XLfit (IDBS, UK) was used to calculate the exponential decay and consequently the rate constant (k) from the ratio of peak area of test compound to internal standard at each time point. The rate of intrinsic clearance [CLint, mL min^−1 (g liver)^−1] of each test compound was then calculated with Equation (3): […]
in which V [mL (mg protein)^−1] is the incubation volume per mg protein added, and microsomal protein yield is taken as 52.5 mg protein per gram of liver. Verapamil (0.5 μM) was used as a positive control to confirm acceptable assay performance.
In general terms: Liver microsomes are a subcellular fraction often used to study metabolism.

A further series concerns the target Lck (Homo sapiens, UniProt P06239). As to the kind of experiment: Kinase panel: Lck. It is filed as biochemical, human/mammalian. Particulars: compound at 10 μM, read-out: % of activity respect of the control. As for the experimental part: as §1
Another series has as its target T1, TBK1 (DU12569) (Homo sapiens, UniProt Q9UHD2).
T1 sequence (Q9UHD2 1-729): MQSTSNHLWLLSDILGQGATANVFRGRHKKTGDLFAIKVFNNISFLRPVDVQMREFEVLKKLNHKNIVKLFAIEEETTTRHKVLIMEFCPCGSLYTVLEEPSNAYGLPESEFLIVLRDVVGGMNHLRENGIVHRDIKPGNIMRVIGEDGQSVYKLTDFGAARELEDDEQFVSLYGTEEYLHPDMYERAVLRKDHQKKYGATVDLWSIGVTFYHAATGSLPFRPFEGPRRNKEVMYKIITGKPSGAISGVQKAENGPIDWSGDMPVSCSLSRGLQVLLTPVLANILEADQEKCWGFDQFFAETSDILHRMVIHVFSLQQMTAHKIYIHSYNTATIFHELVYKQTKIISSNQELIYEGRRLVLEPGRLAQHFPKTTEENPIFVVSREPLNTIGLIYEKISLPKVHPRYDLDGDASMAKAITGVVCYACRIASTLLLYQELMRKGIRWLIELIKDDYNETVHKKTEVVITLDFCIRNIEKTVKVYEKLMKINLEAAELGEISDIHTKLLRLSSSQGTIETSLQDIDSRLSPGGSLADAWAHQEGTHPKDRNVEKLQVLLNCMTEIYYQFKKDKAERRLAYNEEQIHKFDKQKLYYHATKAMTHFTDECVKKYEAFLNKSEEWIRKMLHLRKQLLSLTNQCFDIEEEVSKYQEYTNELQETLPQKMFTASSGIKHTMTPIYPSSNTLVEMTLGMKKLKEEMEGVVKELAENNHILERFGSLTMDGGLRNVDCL
As to the kind of experiment: Kinase panel: TBK1 (DU12569). The class given is biochemical, human/mammalian. Particulars: compound at 10 μM, read-out: % of activity respect of the control. How it is done:
as §1

Another series addresses T2, IKKe (Homo sapiens, UniProt Q14164).
T2 sequence (Q14164 1-716): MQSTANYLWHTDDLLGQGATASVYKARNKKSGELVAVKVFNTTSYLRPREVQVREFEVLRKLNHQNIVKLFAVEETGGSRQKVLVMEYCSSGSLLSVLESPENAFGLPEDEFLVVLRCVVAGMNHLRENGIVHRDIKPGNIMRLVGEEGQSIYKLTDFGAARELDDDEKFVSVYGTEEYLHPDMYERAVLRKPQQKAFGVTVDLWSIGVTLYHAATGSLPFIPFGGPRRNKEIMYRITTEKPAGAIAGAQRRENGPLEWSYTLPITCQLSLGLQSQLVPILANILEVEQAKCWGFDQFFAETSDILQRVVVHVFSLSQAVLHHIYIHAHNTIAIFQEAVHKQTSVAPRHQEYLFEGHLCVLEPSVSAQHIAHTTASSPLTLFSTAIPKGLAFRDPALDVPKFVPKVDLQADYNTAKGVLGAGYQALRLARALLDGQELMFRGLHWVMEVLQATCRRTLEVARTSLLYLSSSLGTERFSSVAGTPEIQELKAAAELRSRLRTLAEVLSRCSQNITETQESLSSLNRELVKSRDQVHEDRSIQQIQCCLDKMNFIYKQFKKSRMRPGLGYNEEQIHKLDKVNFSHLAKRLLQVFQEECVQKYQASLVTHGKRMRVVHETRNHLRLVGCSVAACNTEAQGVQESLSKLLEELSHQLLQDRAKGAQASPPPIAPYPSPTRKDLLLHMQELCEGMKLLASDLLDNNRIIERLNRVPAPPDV
As to the kind of experiment: Kinase panel: IKKe. The class given is biochemical, human/mammalian. Particulars: compound at 10 μM, read-out: % of activity respect of the control. As for the experimental part:
as §1

For a further series, the target named is PAK5 (Homo sapiens, UniProt Q9P286). In words: Kinase panel: PAK5. It is filed as biochemical, human/mammalian. The note with it: compound at 10 μM, read-out: % of activity respect of the control. How it is done:
as §1

Another series has as its target EPH A2 (Homo sapiens, UniProt P29317). As to the kind of experiment: Kinase panel: EPH A2. The note with it: compound at 10 μM, read-out: % of activity respect of the control. It is filed as biochemical, human/mammalian. How it is done:
as §1

The next series deals with FGF-R1 (Homo sapiens, UniProt P11362). In words: Kinase panel: FGF-R1. It is filed as biochemical, human/mammalian. The note with it: compound at 10 μM, read-out: % of activity respect of the control. As for the experimental part: as §1
The target in the next series is PLK1 (Homo sapiens, UniProt P53350). In words: Kinase panel: PLK1. The class given is biochemical, human/mammalian. Particulars: compound at 10 μM, read-out: % of activity respect of the control. As for the experimental part:
as §1

The next series addresses RSK1 (Homo sapiens, UniProt Q15418). In words: Kinase panel: RSK1. It is filed as biochemical, human/mammalian. Particulars: compound at 10 μM, read-out: % of activity respect of the control. As for the experimental part:
as §1

Another series concerns the target GSK3b (Homo sapiens, UniProt P49841). In words: Kinase panel: GSK3b. The note with it: compound at 10 μM, read-out: % of activity respect of the control. The class given is biochemical, human/mammalian. How it is done:
as §1

For a further series, the target named is CK2 (Homo sapiens, UniProt P68400). As to the kind of experiment: Kinase panel: CK2. Particulars: compound at 10 μM, read-out: % of activity respect of the control. The class given is biochemical, human/mammalian. As for the experimental part: as §1
A further series addresses CAMKKb (Homo sapiens, UniProt Q96RR4). As to the kind of experiment: Kinase panel: CAMKKb. It is filed as biochemical, human/mammalian. The note with it: compound at 10 μM, read-out: % of activity respect of the control. As for the experimental part: as §1

PLK1, sequence (P53350 whole entry): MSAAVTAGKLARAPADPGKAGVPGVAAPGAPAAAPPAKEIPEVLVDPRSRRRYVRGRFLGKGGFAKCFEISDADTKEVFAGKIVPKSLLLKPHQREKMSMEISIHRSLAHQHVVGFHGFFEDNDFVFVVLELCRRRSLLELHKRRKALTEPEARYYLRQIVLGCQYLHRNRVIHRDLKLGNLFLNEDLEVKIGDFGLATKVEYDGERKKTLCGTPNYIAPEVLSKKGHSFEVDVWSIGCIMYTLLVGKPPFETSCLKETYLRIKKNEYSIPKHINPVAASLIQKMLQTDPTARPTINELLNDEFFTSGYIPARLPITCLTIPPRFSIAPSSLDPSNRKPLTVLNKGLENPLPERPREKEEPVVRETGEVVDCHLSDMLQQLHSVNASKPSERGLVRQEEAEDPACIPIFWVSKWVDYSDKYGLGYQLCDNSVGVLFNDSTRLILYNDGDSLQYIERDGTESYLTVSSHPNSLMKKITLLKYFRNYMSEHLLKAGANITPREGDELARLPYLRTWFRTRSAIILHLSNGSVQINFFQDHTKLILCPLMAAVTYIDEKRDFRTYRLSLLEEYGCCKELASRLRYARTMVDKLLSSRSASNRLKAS
Lck, sequence (P06239 whole entry): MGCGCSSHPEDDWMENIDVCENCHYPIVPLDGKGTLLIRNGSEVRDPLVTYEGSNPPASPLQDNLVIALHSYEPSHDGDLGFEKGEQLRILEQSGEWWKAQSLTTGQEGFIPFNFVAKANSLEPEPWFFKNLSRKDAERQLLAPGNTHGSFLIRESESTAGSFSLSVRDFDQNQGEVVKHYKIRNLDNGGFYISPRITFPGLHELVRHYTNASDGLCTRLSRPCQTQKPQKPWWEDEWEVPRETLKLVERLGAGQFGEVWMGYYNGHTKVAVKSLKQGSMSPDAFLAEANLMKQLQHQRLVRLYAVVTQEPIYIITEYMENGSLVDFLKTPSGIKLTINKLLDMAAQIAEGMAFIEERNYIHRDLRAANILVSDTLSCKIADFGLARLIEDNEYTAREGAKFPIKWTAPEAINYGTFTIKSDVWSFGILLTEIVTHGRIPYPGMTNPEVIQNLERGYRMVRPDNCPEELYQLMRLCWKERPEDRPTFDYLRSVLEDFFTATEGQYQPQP
PAK5, sequence (Q9P286 whole entry): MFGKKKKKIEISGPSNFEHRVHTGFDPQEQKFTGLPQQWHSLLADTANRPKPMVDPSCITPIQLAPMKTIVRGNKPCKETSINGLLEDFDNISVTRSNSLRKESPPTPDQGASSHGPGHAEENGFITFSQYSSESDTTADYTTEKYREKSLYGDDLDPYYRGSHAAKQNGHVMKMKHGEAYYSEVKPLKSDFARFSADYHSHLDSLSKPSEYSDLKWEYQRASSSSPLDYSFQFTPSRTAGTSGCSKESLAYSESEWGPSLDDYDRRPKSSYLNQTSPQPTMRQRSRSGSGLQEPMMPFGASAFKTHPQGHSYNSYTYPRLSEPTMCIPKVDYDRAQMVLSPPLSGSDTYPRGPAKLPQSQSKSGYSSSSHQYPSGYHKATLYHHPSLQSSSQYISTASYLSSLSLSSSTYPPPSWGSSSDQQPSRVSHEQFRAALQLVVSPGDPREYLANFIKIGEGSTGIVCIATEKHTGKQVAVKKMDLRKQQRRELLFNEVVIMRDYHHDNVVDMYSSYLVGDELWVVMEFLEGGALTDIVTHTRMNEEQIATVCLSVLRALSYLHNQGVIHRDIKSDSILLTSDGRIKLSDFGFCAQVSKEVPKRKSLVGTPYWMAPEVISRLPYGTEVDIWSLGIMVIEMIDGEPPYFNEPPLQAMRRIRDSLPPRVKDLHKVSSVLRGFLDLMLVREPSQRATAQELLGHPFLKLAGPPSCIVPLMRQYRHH
RSK1, sequence (Q15418 whole entry): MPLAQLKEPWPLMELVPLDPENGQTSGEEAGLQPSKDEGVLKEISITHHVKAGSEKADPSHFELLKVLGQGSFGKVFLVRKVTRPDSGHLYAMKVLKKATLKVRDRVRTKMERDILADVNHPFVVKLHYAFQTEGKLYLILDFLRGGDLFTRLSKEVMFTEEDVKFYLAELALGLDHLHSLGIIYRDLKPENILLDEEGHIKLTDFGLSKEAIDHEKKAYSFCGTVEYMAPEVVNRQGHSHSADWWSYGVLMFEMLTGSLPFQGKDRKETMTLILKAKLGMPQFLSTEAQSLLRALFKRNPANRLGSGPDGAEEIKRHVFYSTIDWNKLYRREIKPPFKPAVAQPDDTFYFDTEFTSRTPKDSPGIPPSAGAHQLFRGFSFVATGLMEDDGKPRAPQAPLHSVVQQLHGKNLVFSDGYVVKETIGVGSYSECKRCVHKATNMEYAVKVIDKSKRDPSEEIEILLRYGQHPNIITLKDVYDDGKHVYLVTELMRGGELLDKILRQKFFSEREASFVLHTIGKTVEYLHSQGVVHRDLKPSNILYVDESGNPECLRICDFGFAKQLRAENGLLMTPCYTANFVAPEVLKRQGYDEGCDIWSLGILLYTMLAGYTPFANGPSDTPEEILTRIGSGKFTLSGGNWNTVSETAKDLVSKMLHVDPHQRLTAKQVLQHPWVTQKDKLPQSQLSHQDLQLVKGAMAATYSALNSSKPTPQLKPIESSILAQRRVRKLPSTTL
FGF-R1, sequence (P11362 22-822): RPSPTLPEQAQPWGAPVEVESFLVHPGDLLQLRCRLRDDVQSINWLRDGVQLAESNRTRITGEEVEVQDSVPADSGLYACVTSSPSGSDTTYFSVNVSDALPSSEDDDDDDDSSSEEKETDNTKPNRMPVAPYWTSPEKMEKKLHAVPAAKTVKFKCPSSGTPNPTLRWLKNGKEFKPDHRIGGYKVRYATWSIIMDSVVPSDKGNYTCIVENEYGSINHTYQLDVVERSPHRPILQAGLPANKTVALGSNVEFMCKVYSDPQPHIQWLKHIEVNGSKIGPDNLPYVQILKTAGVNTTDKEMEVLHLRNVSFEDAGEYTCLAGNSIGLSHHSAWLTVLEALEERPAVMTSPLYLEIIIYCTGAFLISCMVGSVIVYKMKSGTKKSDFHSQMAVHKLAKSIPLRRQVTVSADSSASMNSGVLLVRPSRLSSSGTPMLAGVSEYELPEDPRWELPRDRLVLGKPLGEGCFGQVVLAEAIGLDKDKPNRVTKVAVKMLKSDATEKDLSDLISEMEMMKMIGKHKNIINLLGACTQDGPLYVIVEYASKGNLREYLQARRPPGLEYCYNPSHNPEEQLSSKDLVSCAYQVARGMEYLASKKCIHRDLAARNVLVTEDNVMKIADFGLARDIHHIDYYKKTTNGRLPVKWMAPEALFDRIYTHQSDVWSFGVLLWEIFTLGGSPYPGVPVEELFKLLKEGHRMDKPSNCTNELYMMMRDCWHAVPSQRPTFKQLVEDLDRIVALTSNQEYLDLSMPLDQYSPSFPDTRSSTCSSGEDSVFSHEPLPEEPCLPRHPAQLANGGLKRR
EPH A2, sequence (P29317 24-976): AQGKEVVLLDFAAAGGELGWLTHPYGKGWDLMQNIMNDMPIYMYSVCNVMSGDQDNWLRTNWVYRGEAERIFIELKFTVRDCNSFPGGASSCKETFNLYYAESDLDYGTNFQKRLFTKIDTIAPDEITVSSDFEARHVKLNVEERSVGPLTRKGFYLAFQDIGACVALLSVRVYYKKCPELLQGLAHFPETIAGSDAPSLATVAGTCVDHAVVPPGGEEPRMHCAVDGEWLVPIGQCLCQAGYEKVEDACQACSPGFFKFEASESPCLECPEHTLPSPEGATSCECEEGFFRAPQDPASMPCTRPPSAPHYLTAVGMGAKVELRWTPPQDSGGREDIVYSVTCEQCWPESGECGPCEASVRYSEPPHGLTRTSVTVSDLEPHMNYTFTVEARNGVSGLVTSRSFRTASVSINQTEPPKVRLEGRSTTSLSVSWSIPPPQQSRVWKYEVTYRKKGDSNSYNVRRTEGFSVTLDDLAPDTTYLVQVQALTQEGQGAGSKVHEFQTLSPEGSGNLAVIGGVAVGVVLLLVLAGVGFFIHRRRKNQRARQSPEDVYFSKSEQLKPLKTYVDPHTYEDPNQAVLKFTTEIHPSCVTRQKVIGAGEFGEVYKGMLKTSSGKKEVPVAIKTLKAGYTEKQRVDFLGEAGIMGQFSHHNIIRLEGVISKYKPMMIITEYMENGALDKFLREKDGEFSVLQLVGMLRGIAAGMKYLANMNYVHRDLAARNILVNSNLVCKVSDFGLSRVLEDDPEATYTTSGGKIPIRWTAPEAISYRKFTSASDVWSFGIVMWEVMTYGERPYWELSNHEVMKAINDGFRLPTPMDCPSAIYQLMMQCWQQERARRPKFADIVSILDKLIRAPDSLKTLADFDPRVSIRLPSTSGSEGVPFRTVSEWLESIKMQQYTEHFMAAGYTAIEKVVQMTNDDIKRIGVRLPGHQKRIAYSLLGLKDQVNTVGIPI
CAMKKb, sequence (Q96RR4 whole entry): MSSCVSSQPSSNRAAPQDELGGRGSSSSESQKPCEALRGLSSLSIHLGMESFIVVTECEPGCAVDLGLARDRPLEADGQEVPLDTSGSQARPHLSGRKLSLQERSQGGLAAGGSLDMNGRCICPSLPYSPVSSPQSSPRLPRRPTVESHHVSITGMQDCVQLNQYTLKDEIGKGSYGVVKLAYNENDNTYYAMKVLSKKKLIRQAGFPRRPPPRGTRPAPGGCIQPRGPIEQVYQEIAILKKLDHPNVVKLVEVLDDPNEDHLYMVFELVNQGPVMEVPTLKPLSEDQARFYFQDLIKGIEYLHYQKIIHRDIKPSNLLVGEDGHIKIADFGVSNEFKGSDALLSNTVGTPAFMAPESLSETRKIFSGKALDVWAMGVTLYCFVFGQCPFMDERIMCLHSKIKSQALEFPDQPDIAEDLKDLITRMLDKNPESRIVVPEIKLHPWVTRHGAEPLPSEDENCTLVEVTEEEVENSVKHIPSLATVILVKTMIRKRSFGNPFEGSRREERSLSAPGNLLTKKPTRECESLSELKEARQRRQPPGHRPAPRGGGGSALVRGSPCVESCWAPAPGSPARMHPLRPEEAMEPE

In the case of `CC(c1ccccc1)n1c(=O)[nH]c2ncc(-c3ccc(F)cc3)nc21` (stereo not shown) [Compound 1], the remaining activity at 10 µM on SYK amounted to 97%; at PKA it was 87%; on Lck, 90%; on TBK1 (DU12569) it was 95%; at IKKe, 106%; on PAK5 it was 84%. Moreover, the remaining activity at 10 µM at EPH A2 came out at 105%; on FGF-R1, 95%; on PLK1, 111%; on RSK1, 96%; on GSK3b, 63%; on CK2, 107%. At CAMKKb, the remaining activity at 10 µM came out at 101%. This compound returned a CLint in series [1] of less than 0.5 mL/min/g.
In the case of `O=c1[nH]c2ncc(-c3ccc(F)cc3)nc2n1CC1CC1` [Compound 10], the remaining activity at 10 µM came to 98% on SYK; 93% on PKA; 99% on Lck; 86% at TBK1 (DU12569); 94% on IKKe; 95% at PAK5. Besides, the remaining activity at 10 µM was 96% at EPH A2; 88% at FGF-R1; 102% at PLK1; 85% on RSK1; 37% on GSK3b; 105% at CK2. In addition, the remaining activity at 10 µM at CAMKKb was found to be 98%.
For the compound `O=c1[nH]c2ncc(-c3ccc(F)cc3)nc2n1C1CCCCC1` [Compound 12, 1-Cyclohexyl-6-(4-fluorophenyl)-1H-imidazo[4,5-b]pyrazin-2(3H)-one], the remaining activity at 10 µM on SYK amounted to 100%; on PKA, 95%; on Lck, 105%; on TBK1 (DU12569), 90%; at IKKe, 88%; at PAK5, 100%. Moreover, the remaining activity at 10 µM at EPH A2 was 97%; at FGF-R1, 96%; at PLK1 it was 117%; at RSK1 it was 89%; at GSK3b it was 70%; on CK2, 111%. Further, the remaining activity at 10 µM on CAMKKb came to 104%. The compound further registered a CLint in series [1] of 0.7 mL/min/g.
On to `C[C@H](c1ccccc1)n1c(=O)[nH]c2ncc(-c3ccccc3)nc21` [Compound 14, (R)-6-Phenyl-1-(1-phenylethyl)-1H-imidazo[4,5-b]pyrazin-2(3H)-one], for which the remaining activity at 10 µM on SYK worked out at 84%; on PKA, 72%; on Lck it was 89%; at TBK1 (DU12569), 78%; on IKKe, 91%; at PAK5, 80%. The remaining activity at 10 µM is 89% at EPH A2; 63% at FGF-R1; 104% at PLK1; 89% on RSK1; 66% at GSK3b; 105% at CK2. Also, the remaining activity at 10 µM on CAMKKb turned out to be 86%.
As to `O=c1[nH]c2ncc(-c3ccccc3CO)nc2n1C1CCCCC1` [Compound 28], in [1], the CLint was found to be 2.4 mL/min/g.
